From patent US12157746B2, “Tetrahydro-1H-pyrazino[2,1-a]isoindolylquinoline compounds for the treatment of autoimmune disease” (F. HOFFMANN-LA ROCHE AG, priority 2018, dated 2024)
pIC50: −log10 of the molar value.

These molecules were tested against T1, human TLR9 (Homo sapiens, UniProt Q9NR96) (assay: HEK293-Blue-hTLR-9 cells assay). Settings: HEK293-Blue-hTLR9 cells, ODN2006 stimulation, 20 hrs, SEAP reporter; read-out: HEK/hTLR9 IC50.
T1 sequence (Q9NR96 26-1032): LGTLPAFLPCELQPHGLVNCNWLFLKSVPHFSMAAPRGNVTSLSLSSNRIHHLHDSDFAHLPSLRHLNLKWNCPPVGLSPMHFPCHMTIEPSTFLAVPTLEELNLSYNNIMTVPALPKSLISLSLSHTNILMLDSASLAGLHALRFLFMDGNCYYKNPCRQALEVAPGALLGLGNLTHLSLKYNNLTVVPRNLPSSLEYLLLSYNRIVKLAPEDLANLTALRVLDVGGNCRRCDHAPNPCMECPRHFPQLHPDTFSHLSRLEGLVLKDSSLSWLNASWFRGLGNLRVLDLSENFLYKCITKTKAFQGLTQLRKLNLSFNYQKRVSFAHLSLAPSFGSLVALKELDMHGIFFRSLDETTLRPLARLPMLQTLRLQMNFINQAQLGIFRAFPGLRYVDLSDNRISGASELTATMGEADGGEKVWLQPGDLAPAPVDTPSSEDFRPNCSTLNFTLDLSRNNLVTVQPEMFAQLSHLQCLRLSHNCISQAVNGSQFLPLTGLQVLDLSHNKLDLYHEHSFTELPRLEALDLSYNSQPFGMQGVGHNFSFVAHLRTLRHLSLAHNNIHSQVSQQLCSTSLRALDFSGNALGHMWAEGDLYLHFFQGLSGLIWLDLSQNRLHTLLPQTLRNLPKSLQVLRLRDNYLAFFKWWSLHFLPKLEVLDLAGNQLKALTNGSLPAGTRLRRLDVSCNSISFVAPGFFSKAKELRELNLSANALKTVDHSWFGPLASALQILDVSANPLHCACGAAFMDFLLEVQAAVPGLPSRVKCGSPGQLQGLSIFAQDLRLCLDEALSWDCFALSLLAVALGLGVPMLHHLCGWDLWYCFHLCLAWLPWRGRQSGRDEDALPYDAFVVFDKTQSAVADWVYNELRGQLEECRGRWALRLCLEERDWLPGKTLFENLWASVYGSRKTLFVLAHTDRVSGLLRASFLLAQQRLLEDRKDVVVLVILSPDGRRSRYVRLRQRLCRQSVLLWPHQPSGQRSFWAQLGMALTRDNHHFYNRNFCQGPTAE
Type: cell-based
How it was run: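 Antagonist mode in HEK293-Blue hTLR9 reporter cells (SEAP under NF-κB/AP-1 sites), stimulated with ODN2006 added from a 20 uM solution. Serially diluted compound (1% DMSO final) was incubated 20 hrs at 37° C. Supernatant SEAP was developed with QUANTI-Blue for 2 h at 37° C and read at 620˜655 nm.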

SMILES	pIC50
[2H]c1ccc2c(N3C[C@@H](C)N4Cc5cc(N6CC(C)(N)C6)ccc5[C@H]4C3)ccc(C#N)c2n1 [Example 92, 5-[(4R,10bS)-8-(3-amino-3-methyl-azetidin-1-yl)-4-methyl-3,4,6,10b-tetrahydro-1H-pyrazino[2,1-a]isoindol-2-yl]-2-deuterio-quinoline-8-carbonitrile]	6.83
C[C@@H]1CN(c2ccc(C#N)c3ncccc23)C[C@@H]2c3ccc(N4C[C@H](N)[C@@H](F)C4)cc3CN12 [Example 49, 5-[(4R,10bS)-8-[(3S,4S)-3-amino-4-fluoro-pyrrolidin-1-yl]-4-methyl-3,4,6,10b-tetrahydro-1H-pyrazino[2,1-a]isoindol-2-yl]quinoline-8-carbonitrile]	6.73
CN[C@@H]1CN(c2ccc3c(c2)CN2[C@H](C)CN(c4ccc(C#N)c5ncccc45)C[C@H]32)C[C@H]1O [Example 43, 5-[(4R,10bS)-4-methyl-8-[(3R,4R)-3-hydroxy-4-(methylamino)pyrrolidin-1-yl]-3,4,6,10b-tetrahydro-1H-pyrazino[2,1-a]isoindol-2-yl]quinoline-8-carbonitrile]	7.26
C[C@@H]1CN(c2ccc(C#N)c3ncccc23)C[C@@H]2c3ccc(N4C[C@H](N)[C@@H](O)C4)cc3CN12 [Example 40A, 5-[(4R,10bS)-8-[(3S,4S)-3-amino-4-hydroxy-pyrrolidin-1-yl]-4-methyl-3,4,6,10b-tetrahydro-1H-pyrazino[2,1-a]isoindol-2-yl]quinoline-8-carbonitrile]	7.23
C[C@@H]1CN(c2ccc(C#N)c3ncccc23)C[C@@H]2c3ccc(N[C@@H]4CNC[C@H]4F)cc3CN12 [Example 33, 5-[(4R,10bS)-8-[[(3R,4R)-4-fluoropyrrolidin-3-yl]amino]-4-methyl-3,4,6,10b-tetrahydro-1H-pyrazino[2,1-a]isoindol-2-yl]quinoline-8-carbonitrile]	7.00
C[C@@H]1CN(c2ccc(C#N)c3ncccc23)C[C@@H]2c3ccc(N4C[C@H]5NCCO[C@@H]5C4)cc3CN12 [Example 44, 5-[(4R,10bS)-4-methyl-8-[(4aR,7aR)-3,4,4a,5,7,7a-hexahydro-2H-pyrrolo[3,4-b][1,4]oxazin-6-yl]-3,4,6,10b-tetrahydro-1H-pyrazino[2,1-a]isoindol-2-yl]quinoline-8-carbonitrile]	6.99
CN[C@H]1CN(c2ccc3c(c2)CN2[C@H](C)CN(c4ccc(C#N)c5ncccc45)C[C@H]32)C[C@@H]1O [Example 42, 5-[(4R,10bS)-8-[(3S,4S)-3-hydroxy-4-(methylamino)pyrrolidin-1-yl]-4-methyl-3,4,6,10b-tetrahydro-1H-pyrazino[2,1-a]isoindol-2-yl]quinoline-8-carbonitrile]	7.18
C[C@@H]1CN(c2ccc(C#N)c3ncsc23)C[C@@H]2c3ccc(N4CCNCC4)cc3CN12 [Example 6, 7-[(4R,10bS)-4-methyl-8-piperazin-1-yl-3,4,6,10b-tetrahydro-1H-pyrazino[2,1-a]isoindol-2-yl]-1,3-benzothiazole-4-carbonitrile]	6.81
C[C@@H]1CN(c2ccc(C#N)c3ncccc23)C[C@@H]2c3ccc(N4CCNC[C@@H](O)C4)cc3CN12 [Example 53B, 5-[(4R,10bS)-8-[(6R)-6-hydroxy-1,4-diazepan-1-yl]-4-methyl-3,4,6,10b-tetrahydro-1H-pyrazino[2,1-a]isoindol-2-yl]quinoline-8-carbonitrile]	7.17
C[C@@H]1CN(c2ccc(C#N)c3ncccc23)C[C@@H]2c3ccc(N4CCC(C)(N)CC4)cc3CN12 [Example 51, 5-[(4R,10bS)-8-(4-amino-4-methyl-1-piperidyl)-4-methyl-3,4,6,10b-tetrahydro-1H-pyrazino[2,1-a]isoindol-2-yl]quinoline-8-carbonitrile]	6.86
C[C@@H]1CN(c2ccc(C#N)c3ncccc23)C[C@@H]2c3ccc(N4CC(N)C5(COC5)C4)cc3CN12 (stereo partly drawn) [Example 18, 5-[(4R,10bS)-8-(5-amino-2-oxa-7-azaspiro[3.4]octan-7-yl)-4-methyl-3,4,6,10b-tetrahydro-1H-pyrazino[2,1-a]isoindol-2-yl]quinoline-8-carbonitrile]	6.94
C[C@@H]1CN(c2ccc3c(c2)CN2[C@H](C)CN(c4ccc(C#N)n5nccc45)C[C@H]32)CCN1 [Example 97, 4-[(4R,10bS)-4-methyl-8-[(3R)-3-methylpiperazin-1-yl]-3,4,6,10b-tetrahydro-1H-pyrazino[2,1-a]isoindol-2-yl]pyrazolo[1,5-a]pyridine-7-carbonitrile]	6.79
C[C@@H]1CN(c2ccc(C#N)c3ncccc23)C[C@@H]2c3ccc(N4CCOC5CNCC54)cc3CN12 (stereo partly drawn) [Example 52, 5-[(4R,10bS)-8-(3,4a,5,6,7,7a-hexahydro-2H-pyrrolo[3,4-b][1,4]oxazin-4-yl)-4-methyl-3,4,6,10b-tetrahydro-1H-pyrazino[2,1-a]isoindol-2-yl]quinoline-8-carbonitrile]	6.71
N#Cc1ccc(N2CCN3Cc4cc(N5CCNCC5)ccc4C3C2)c2scnc12 (stereo not shown) [Example 4, 7-(8-piperazin-1-yl-3,4,6,10b-tetrahydro-1H-pyrazino[2,1-a]isoindol-2-yl)-1,3-benzothiazole-4-carbonitrile]	7.00

Other lines, results leading:

pIC50	SMILES
6.83	CO[C@@H]1CN(c2ccc3c(c2)CN2[C@H](C)CN(c4ccc(C#N)n5nccc45)C[C@H]32)C[C@H]1N [Example 94, 4-[(4R,10bS)-8-[(3R,4R)-3-amino-4-methoxy-pyrrolidin-1-yl]-4-methyl-3,4,6,10b-tetrahydro-1H-pyrazino[2,1-a]isoindol-2-yl]pyrazolo[1,5-a]pyridine-7-carbonitrile]
7.06	C[C@@H]1CN(c2ccc(C#N)c3ncccc23)C[C@@H]2c3ccc(N4CCOC[C@@H](N)C4)cc3CN12 [Example 54B, 5-[(4R,10bS)-8-[(6S)-6-amino-1,4-oxazepan-4-yl]-4-methyl-3,4,6,10b-tetrahydro-1H-pyrazino[2,1-a]isoindol-2-yl]quinoline-8-carbonitrile]
> 7.50	COC12CNCC1CN(c1ccc3c(c1)CN1[C@H](C)CN(c4ccc(C#N)c5ncccc45)C[C@H]31)C2 (stereo partly drawn) [Example 41, 5-[(4R,10bS)-8-(3a-methoxy-1,2,3,4,6,6a-hexahydropyrrolo[3,4-c]pyrrol-5-yl)-4-methyl-3,4,6,10b-tetrahydro-1H-pyrazino[2,1-a]isoindol-2-yl]quinoline-8-carbonitrile]
6.71	C[C@@H]1CN(c2ccc(C#N)c3ncccc23)C[C@@H]2c3ccc(N4C[C@@H](N)[C@H](F)C4)cc3CN12 [Example 48, 5-[(4R,10bS)-8-[(3R,4R)-3-amino-4-fluoro-pyrrolidin-1-yl]-4-methyl-3,4,6,10b-tetrahydro-1H-pyrazino[2,1-a]isoindol-2-yl]quinoline-8-carbonitrile]
7.04	CO[C@@H]1CN(c2ccc3c(c2)CN2[C@H](C)CN(c4ccc(C#N)n5nccc45)C[C@H]32)CC[C@H]1N [Example 104, 4-[(4R,10bS)-8-[(3R,4R)-4-amino-3-methoxy-1-piperidyl]-4-methyl-3,4,6,10b-tetrahydro-1H-pyrazino[2,1-a]isoindol-2-yl]pyrazolo[1,5-a]pyridine-7-carbonitrile]
6.80	C[C@@H]1CN(c2ccc(C#N)n3nccc23)C[C@@H]2c3ccc(N4C[C@H](N)[C@@](C)(O)C4)cc3CN12 [Example 109, 4-[(4R,10bS)-8-[(3S,4S)-4-amino-3-hydroxy-3-methyl-pyrrolidin-1-yl]-4-methyl-3,4,6,10b-tetrahydro-1H-pyrazino[2,1-a]isoindol-2-yl]pyrazolo[1,5-a]pyridine-7-carbonitrile]
6.95	C[C@@H]1CN(c2ccc(C#N)c3ncccc23)C[C@@H]2c3ccc(N4CCNC[C@](C)(O)C4)cc3CN12 [Example 55A, 5-[(4R,10bS)-8-[(6S)-6-hydroxy-6-methyl-1,4-diazepan-1-yl]-4-methyl-3,4,6,10b-tetrahydro-1H-pyrazino[2,1-a]isoindol-2-yl]quinoline-8-carbonitrile]
6.98	C[C@@H]1CN(c2ccc(C#N)c3ncccc23)C[C@@H]2c3ccc(N4CC(N)C4)cc3CN12 [Example 22, 5-[(4R,10bS)-8-(3-aminoazetidin-1-yl)-4-methyl-3,4,6,10b-tetrahydro-1H-pyrazino[2,1-a]isoindol-2-yl]quinoline-8-carbonitrile]
